In ChEMBL document CHEMBL3585283, “Synthesis and evaluation of a series of quinolinyl trans-cyanostilbene analogs as anticancer agents” (2014):
The source made the active and inactive calls. The calls are words filed in the database; no cut-off is given here.

What was measured:
[1] = tested on: TK-10; assay: Antitumor activity against human TK10 cells after 48 hrs; assay type: functional; conditions: TK-10, 48 h
[2] = tested on: CAKI-1; assay: Antitumor activity against human Caki1 cells after 48 hrs; assay type: functional; conditions: CAKI-1, 48 h
[3] = tested on: SK-MEL-28; assay: Antitumor activity against human SK-MEL-28 cells after 48 hrs; assay type: functional; conditions: SK-MEL-28, 48 h
[4] = tested on: SF-268; assay: Antitumor activity against human SF268 cells after 48 hrs; assay type: functional; conditions: SF-268, 48 h
[5] = tested on: HL-60(TB); assay: Antitumor activity against human HL-60(TB) cells after 48 hrs; assay type: functional; conditions: HL-60, 48 h
[6] = tested on: SK-MEL-5; assay: Antitumor activity against human SK-MEL-5 cells after 48 hrs; assay type: functional; conditions: SK-MEL-5, 48 h
[7] = tested on: IGROV-1; assay: Antitumor activity against human IGROV1 cells after 48 hrs; assay type: functional; conditions: IGROV-1, 48 h
[8] = tested on: SK-MEL-2; assay: Antitumor activity against human SK-MEL-2 cells after 48 hrs; assay type: functional; conditions: SK-MEL-2, 48 h
[9] = tested on: OVCAR-5; assay: Antitumor activity against human OVCAR5 cells after 48 hrs; assay type: functional; conditions: OVCAR-5, 48 h
[10] = tested on: A498; assay: Antitumor activity against human A498 cells after 48 hrs; assay type: functional; conditions: A498, 48 h
[11] = Antitumor activity against human RPMI8226 cells after 48 hrs; assay type: functional; conditions: RPMI-8226, 48 h
[12] = tested on: SR; assay: Antitumor activity against human SR cells after 48 hrs; assay type: functional
[13] = tested on: 786-0; assay: Antitumor activity against human 786-0 cells after 48 hrs; assay type: functional; conditions: 786-0, 48 h
[14] = tested on: HCT-15; assay: Antitumor activity against human HCT15 cells after 48 hrs; assay type: functional; conditions: HCT-15, 48 h
[15] = Antitumor activity against human COLO205 cells after 48 hrs; assay type: functional; conditions: COLO 205, 48 h
[16] = Antitumor activity against human Hs578T cells after 48 hrs; assay type: functional; conditions: Hs-578T
[17] = tested on: KM12; assay: Antitumor activity against human KM12 cells after 48 hrs; assay type: functional; conditions: KM12, 48 h
[18] = tested on: Malme-3M; assay: Antitumor activity against human MALME-3M cells after 48 hrs; assay type: functional
[19] = Antitumor activity against human RXF393 cells after 48 hrs; assay type: functional; conditions: RXF 393, 48 h
[20] = tested on: UACC-62; assay: Antitumor activity against human UACC62 cells after 48 hrs; assay type: functional; conditions: UACC-62, 48 h
[21] = tested on: OVCAR-8; assay: Antitumor activity against human OVCAR8 cells after 48 hrs; assay type: functional; conditions: OVCAR-8, 48 h
[22] = tested on: MCF7; assay: Antitumor activity against human MCF7 cells after 48 hrs; assay type: functional; conditions: MCF7, 48 h
[23] = tested on: HCT-116; assay: Antitumor activity against human HCT116 cells after 48 hrs; assay type: functional; conditions: HCT-116, 48 h
[24] = Antitumor activity against human LOXIMVI cells after 48 hrs; assay type: functional; conditions: LOX IMVI
[25] = tested on: NCI-H522; assay: Antitumor activity against human NCI-H522 cells after 48 hrs; assay type: functional; conditions: NCI-H522, 48 h
[26] = tested on: MDA-MB-231; assay: Antitumor activity against human MDA-MB-231 cells after 48 hrs; assay type: functional; conditions: MDA-MB-231, 48 h
[27] = tested on: MDA-MB-468; assay: Antitumor activity against human MDA-MB-468 cells after 48 hrs; assay type: functional; conditions: MDA-MB-468, 48 h
[28] = tested on: OVCAR-3; assay: Antitumor activity against human OVCAR3 cells after 48 hrs; assay type: functional; conditions: OVCAR-3, 48 h
[29] = tested on: CCRF-CEM; assay: Antitumor activity against human CCRF-CEM cells after 48 hrs; assay type: functional
[30] = Antitumor activity against human MOLT4 cells after 48 hrs; assay type: functional; conditions: MOLT-4, 48 h
[31] = tested on: NCI-H226; assay: Antitumor activity against human NCI-H226 cells after 48 hrs; assay type: functional; conditions: NCI-H226, 48 h
[32] = tested on: A549; assay: Antitumor activity against human A549 cells after 48 hrs; assay type: functional; conditions: A549, 48 h
[33] = tested on: UO-31; assay: Antitumor activity against human UO31 cells after 48 hrs; assay type: functional; conditions: UO-31, 48 h
[34] = Antitumor activity against human HCC2998 cells after 48 hrs; assay type: functional; conditions: HCC 2998, 48 h
[35] = tested on: K562; assay: Antitumor activity against human K562 cells after 48 hrs; assay type: functional; conditions: K562, 48 h
[36] = tested on: DU-145; assay: Antitumor activity against human DU145 cells after 48 hrs; assay type: functional; conditions: DU-145, 48 h
[37] = tested on: HT-29; assay: Antitumor activity against human HT-29 cells after 48 hrs; assay type: functional; conditions: HT-29, 48 h
[38] = tested on: ACHN; assay: Antitumor activity against human ACHN cells after 48 hrs; assay type: functional
[39] = tested on: MDA-MB-435; assay: Antitumor activity against human MDA-MB-435 cells after 48 hrs; assay type: functional; conditions: MDA-MB-435, 48 h
[40] = tested on: NCI-H23; assay: Antitumor activity against human NCI-H23 cells after 48 hrs; assay type: functional; conditions: NCI-H23, 48 h
[41] = tested on: NCI-H460; assay: Antitumor activity against human NCI-H460 cells after 48 hrs; assay type: functional; conditions: NCI-H460, 48 h
[42] = Antitumor activity against human HOP92 cells after 48 hrs; assay type: functional; conditions: HOP-92, 48 h
[43] = tested on: SN12C; assay: Antitumor activity against human SN12C cells after 48 hrs; assay type: functional
[44] = Antitumor activity against human BT549 cells after 48 hrs; assay type: functional; conditions: BT-549, 48 h
[45] = tested on: SNB-75; assay: Antitumor activity against human SNB75 cells after 48 hrs; assay type: functional; conditions: SNB-75, 48 h
[46] = tested on: NCI-H322M; assay: Antitumor activity against human NCI-H322M cells after 48 hrs; assay type: functional
[47] = tested on: M14; assay: Antitumor activity against human M14 cells after 48 hrs; assay type: functional; conditions: M14, 48 h
[48] = tested on: OVCAR-4; assay: Antitumor activity against human OVCAR4 cells after 48 hrs; assay type: functional; conditions: OVCAR-4, 48 h
[49] = tested on: SNB-19; assay: Antitumor activity against human SNB19 cells after 48 hrs; assay type: functional; conditions: SNB-19, 48 h
[50] = Antitumor activity against human NCI-ADR-RES cells after 48 hrs; assay type: functional
[51] = tested on: U-251; assay: Antitumor activity against human U251 cells after 48 hrs; assay type: functional; conditions: U-251, 48 h
[52] = tested on: SW-620; assay: Antitumor activity against human SW620 cells after 48 hrs; assay type: functional; conditions: SW-620, 48 h
[53] = tested on: SK-OV-3; assay: Antitumor activity against human SKOV3 cells after 48 hrs; assay type: functional; conditions: SK-OV-3, 48 h
[54] = tested on: EKVX; assay: Antitumor activity against human EKVX cells after 48 hrs; assay type: functional, cell-based
[55] = tested on: T47D; assay: Antitumor activity against human T47D cells after 48 hrs; assay type: functional
[56] = Antitumor activity against human SF539 cells after 48 hrs; assay type: functional; conditions: SF-539, 48 h
[57] = tested on: HOP-62; assay: Antitumor activity against human HOP62 cells after 48 hrs; assay type: functional; conditions: HOP-62, 48 h
[58] = tested on: PC-3; assay: Antitumor activity against human PC3 cells after 48 hrs; assay type: functional; conditions: PC-3, 48 h
[59] = Antitumor activity against human SF295 cells after 48 hrs; assay type: functional; conditions: SF-295, 48 h
[60] = tested on: UACC-257; assay: Antitumor activity against human UACC257 cells after 48 hrs; assay type: functional; conditions: UACC-257, 48 h

## COc1cc(OC)cc(/C(C#N)=C/c2ccc3ccccc3n2)c1
[1]
  GI50: 3.28 µM
[2]
  GI50: 0.318 µM
[3]
  GI50: 0.896 µM
[4]
  GI50: 0.476 µM
[5]
  GI50: 0.27 µM
[6]
  GI50: 0.406 µM
[7]
  GI50: 0.958 µM
[8]
  GI50: 0.522 µM
[9]
  GI50: 0.716 µM
[10]
  GI50: 0.275 µM
[11]
  GI50: 0.433 µM
[12]
  GI50: inactive
[13]
  GI50: 0.501 µM
[14]
  GI50: 0.409 µM
[15]
  GI50: 0.374 µM
[16]
  GI50: 0.7 µM
[17]
  GI50: 0.425 µM
[18]
  GI50: 0.348 µM
[19]
  GI50: 0.334 µM
[20]
  GI50: 0.449 µM
[21]
  GI50: 0.659 µM
[22]
  GI50: 0.537 µM
[23]
  GI50: 0.416 µM
[24]
  GI50: 0.61 µM
[25]
  GI50: 0.094 µM
[26]
  GI50: 1.02 µM
[27]
  GI50: 1.5 µM
[28]
  GI50: 0.309 µM
[29]
  GI50: 0.332 µM
[30]
  GI50: 0.419 µM
[31]
  GI50: 10.8 µM
[32]
  GI50: 0.649 µM
[33]
  GI50: 0.573 µM
[34]
  GI50: 1.42 µM
[35]
  GI50: 0.353 µM
[36]
  GI50: 0.801 µM
[37]
  GI50: 0.367 µM
[38]
  GI50: 0.773 µM
[39]
  GI50: 0.147 µM
[40]
  GI50: 0.983 µM
[41]
  GI50: 0.339 µM
[42]
  GI50: 0.542 µM
[43]
  GI50: 0.661 µM
[44]
  GI50: 0.342 µM
[45]
  GI50: 0.311 µM
[46]
  GI50: 3.02 µM
[47]
  GI50: 0.36 µM
[48]
  GI50: 0.788 µM
[49]
  GI50: 0.728 µM
[50]
  GI50: 0.283 µM
[51]
  GI50: 0.425 µM
[52]
  GI50: 0.357 µM
[53]
  GI50: 0.804 µM
[54]
  GI50: inactive
[55]
  GI50: 1.23 µM
[56]
  GI50: 0.286 µM
[57]
  GI50: 0.959 µM
[58]
  GI50: 0.584 µM
[59]
  GI50: 0.341 µM

## COc1cc(/C(C#N)=C/c2ccc3ccccc3n2)cc(OC)c1OC
[1]
  GI50: 4.69 µM
[2]
  GI50: 0.068 µM
[3]
  GI50: 0.518 µM
[4]
  GI50: 0.835 µM
[5]
  GI50: 0.223 µM
[6]
  GI50: 0.243 µM
[7]
  GI50: 0.846 µM
[8]
  GI50: 0.483 µM
[9]
  GI50: 0.58 µM
[10]
  GI50: 0.295 µM
[11]
  GI50: 0.297 µM
[12]
  GI50: inactive
[13]
  GI50: 0.445 µM
[14]
  GI50: 0.319 µM
[60]
  GI50: 0.761 µM
[15]
  GI50: 0.198 µM
[16]
  GI50: 0.689 µM
[17]
  GI50: 0.35 µM
[18]
  GI50: inactive
[19]
  GI50: 0.271 µM
[20]
  GI50: 0.092 µM
[21]
  GI50: 0.446 µM
[22]
  GI50: 0.275 µM
[23]
  GI50: 0.234 µM
[24]
  GI50: 0.766 µM
[25]
  GI50: 0.0372 µM
[26]
  GI50: 0.943 µM
[27]
  GI50: 0.243 µM
[28]
  GI50: 0.163 µM
[29]
  GI50: 0.248 µM
[30]
  GI50: 0.488 µM
[31]
  GI50: 4.78 µM
[32]
  GI50: 0.375 µM
[33]
  GI50: 0.762 µM
[34]
  GI50: 0.61 µM
[35]
  GI50: 0.08 µM
[36]
  GI50: 0.446 µM
[37]
  GI50: 0.24 µM
[38]
  GI50: 1.04 µM
[39]
  GI50: 0.033 µM
[40]
  GI50: 0.751 µM
[41]
  GI50: 0.361 µM
[42]
  GI50: 0.736 µM
[43]
  GI50: 0.627 µM
[44]
  GI50: 0.315 µM
[45]
  GI50: 0.182 µM
[46]
  GI50: 0.718 µM
[47]
  GI50: 0.173 µM
[48]
  GI50: 1.43 µM
[49]
  GI50: 0.578 µM
[50]
  GI50: 0.112 µM
[51]
  GI50: 0.355 µM
[52]
  GI50: 0.164 µM
[53]
  GI50: 0.524 µM
[54]
  GI50: inactive
[55]
  GI50: 4.76 µM
[56]
  GI50: 0.197 µM
[57]
  GI50: 0.567 µM
[58]
  GI50: 0.348 µM
[59]
  GI50: 0.277 µM
